From patent publication US10206937B2, “Boronic acid derivatives and therapeutic uses thereof” (Qpex Biopharma, Inc., priority 2014, dated 2019) come the findings set out here.

The target in assay [1] is T1, NDM-1 (Klebsiella pneumoniae, UniProt C7C422). Put plainly: Inhibition of purified class B carbapenemase NDM-1 (Ki, imipenem substrate). The assay is classed as biochemical. To be noted: NDM-1, substrate imipenem; read-out: Ki NDM-1, Imipenem.
Another assay concerns the target T2, VIM-1 (Pseudomonas aeruginosa, UniProt A0A0F7KYQ8).
T2 construct: made in house; host or cells: ECM6711 strain carrying pUCP24-VIM-1 plasmid; culture supernatant used unpurified
Put plainly: biochemical. The settings on record: cleavage of nitrocefin (200 uM) by VIM-1 supernatant.

The target in assay [2] is T1, NDM-1. The experiment in a line: biochemical.
Assay [3] addresses T3, purified class A, C and D enzymes (UniProt Q9F663).
T3 construct: rows headed: Ki (KPC-2, NCF); other: purified KPC-2; nitrocefin reporter substrate
Type of assay: biochemical. The settings on record: read-out: Ki (KPC-2, NCF); purified KPC-2; nitrocefin reporter substrate.

In assay [4] the target is T4, purified class A, C and D enzymes (UniProt P0AD64, L31Q/G234S/E235K, species not given).
T4 construct: Ki (SHV-12, NCF); other: purified SHV-12; nitrocefin reporter substrate
T4 sequence (P0AD64 1-286 L31Q/G234S/E235K): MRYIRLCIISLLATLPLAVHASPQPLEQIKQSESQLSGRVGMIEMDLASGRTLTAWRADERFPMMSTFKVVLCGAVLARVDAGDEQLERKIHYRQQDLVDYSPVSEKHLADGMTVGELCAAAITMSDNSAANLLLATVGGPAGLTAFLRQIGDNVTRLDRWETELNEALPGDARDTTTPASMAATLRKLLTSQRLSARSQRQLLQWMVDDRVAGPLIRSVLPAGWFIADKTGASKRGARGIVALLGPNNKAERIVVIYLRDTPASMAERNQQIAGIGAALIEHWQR
Type of assay: biochemical. To be noted: read-out: Ki (SHV-12, NCF); purified SHV-12; nitrocefin reporter substrate.

Assay [5] concerns the target T5, purified class A, C and D enzymes (UniProt Q6XEC0).
T5 construct: rows headed: Ki (OXA-48, NCF); other: purified OXA-48; nitrocefin reporter substrate
Type of assay: biochemical. To be noted: read-out: Ki (OXA-48, NCF); purified OXA-48; nitrocefin reporter substrate.

Assay [6] addresses purified class A, C and D enzymes (Escherichia coli, UniProt Q9L5C7). The assay is classed as biochemical. To be noted: purified CTX-M-14; nitrocefin reporter substrate.
Assay [7] has as its target purified class A, C and D enzymes (Enterobacter cloacae, UniProt P05364). The assay is classed as biochemical. The settings on record: purified P99/AmpC of ECL; nitrocefin reporter substrate.
Where [8] appears, read: cleavage of imipenem (100 uM) by NDM-1, read-out: Ki, Imipenem.

T1 sequence (C7C422 29-270, looked up, species assumed): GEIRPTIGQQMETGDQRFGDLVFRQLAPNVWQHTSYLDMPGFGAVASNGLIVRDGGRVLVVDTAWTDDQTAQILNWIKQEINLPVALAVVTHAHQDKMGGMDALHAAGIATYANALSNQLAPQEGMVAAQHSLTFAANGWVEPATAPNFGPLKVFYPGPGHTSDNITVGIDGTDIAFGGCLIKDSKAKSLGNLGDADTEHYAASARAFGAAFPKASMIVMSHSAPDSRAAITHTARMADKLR
Sequence of purified class A, C and D enzymes (Escherichia coli, UniProt Q9L5C7) (Q9L5C7 entry or part of it): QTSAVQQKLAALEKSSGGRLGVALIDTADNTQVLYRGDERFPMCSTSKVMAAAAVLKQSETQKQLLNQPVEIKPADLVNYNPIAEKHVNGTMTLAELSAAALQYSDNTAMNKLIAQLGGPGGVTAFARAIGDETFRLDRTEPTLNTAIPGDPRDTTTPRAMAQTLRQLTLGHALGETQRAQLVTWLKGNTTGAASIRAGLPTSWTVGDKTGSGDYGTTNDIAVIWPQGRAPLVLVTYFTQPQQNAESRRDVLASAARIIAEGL
Sequence of purified class A, C and D enzymes (Enterobacter cloacae, UniProt P05364) (P05364 21-381): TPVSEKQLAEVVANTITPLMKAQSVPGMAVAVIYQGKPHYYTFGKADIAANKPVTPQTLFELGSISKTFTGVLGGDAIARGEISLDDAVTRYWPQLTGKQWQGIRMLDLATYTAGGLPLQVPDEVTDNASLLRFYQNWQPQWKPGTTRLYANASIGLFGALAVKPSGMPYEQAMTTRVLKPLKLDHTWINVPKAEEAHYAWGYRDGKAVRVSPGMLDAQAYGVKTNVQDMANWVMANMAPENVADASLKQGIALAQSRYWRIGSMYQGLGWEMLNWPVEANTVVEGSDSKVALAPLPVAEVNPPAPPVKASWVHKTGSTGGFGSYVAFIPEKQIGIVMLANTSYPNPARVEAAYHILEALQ

The Ki is a measure of affinity in units of concentration, obtained from inhibition or displacement. A word on the IC50: it is the concentration needed to halve the response being measured. Consider `Cn1nnnc1S[C@H]1Cc2cccc(C(=O)O)c2OB1O` [Compound 5, (R)-2-hydroxy-3-(1-methyl-1H-tetrazol-5-ylthio)-3,4-dihydro-2H-benzo[e][1,2]oxaborinine-8-carboxylic acid], for which the inhibition constant (Ki) at NDM-1 [1] and on NDM-1 [2] (setting [8]) was 10 to 100 nM throughout. The compound further returned an IC50 at VIM-1 of no less than 1000 nM.

Take `O=C(O)c1cccc2c1OB(O)[C@@H](Sc1ccccc1)C2` [Compound 6, (R)-2-hydroxy-3-(phenylthio)-3,4-dihydro-2H-benzo[e][1,2]oxaborinine-8-carboxylic acid]: the inhibitory constant (Ki) on NDM-1 [1] and at NDM-1 [2] (setting [8]) was less than 10 nM throughout. Further, the IC50 on VIM-1 is less than 1000 nM.

Regarding `O=C(O)c1cccc2c1OB(O)[C@@H](Sc1cccnc1)C2` [Compound 8, (R)-2-hydroxy-3-(pyridin-3-ylthio)-3,4-dihydro-2H-benzo[e][1,2]oxaborinine-8-carboxylic acid], the Ki on NDM-1 [1] and at NDM-1 [2] (setting [8]) was greater than 100 nM in each case. Besides, the IC50 at VIM-1 is less than 1000 nM.

For the compound `CC(=N)S[C@H]1Cc2cccc(C(=O)O)c2OB1O` [Compound 10, (R)-2-hydroxy-3-(1-iminoethylthio)-3,4-dihydro-2H-benzo[e][1,2]oxaborinine-8-carboxylic acid], the values for the Ki (at NDM-1 [1]; in assay [3]; at NDM-1 [2] (setting [8])) were 10 to 100 nM, 100 to 1000 nM and 10 to 100 nM, respectively. In addition, on VIM-1, the IC50 was no less than 1000 nM.

For `O=C(O)c1cccc2c1OB(O)[C@@H](Sc1c[nH]nn1)C2` [Compound 12, (R)-3-(1H-1,2,3-triazol-4-ylthio)-2-hydroxy-3,4-dihydro-2H-benzo[e][1,2]oxaborinine-8-carboxylic acid], the results for the Ki (on NDM-1 [1]; in assay [3]; on NDM-1 [2] (setting [8])) were 10 to 100 nM, 100 to 1000 nM and 10 to 100 nM, respectively. This compound displayed an IC50 at VIM-1 of less than 1000 nM.

Consider `O=C(O)c1cccc2c1OB(O)[C@@H](OCc1ccccc1)C2` [Compound 13, (R)-3-(benzyloxy)-2-hydroxy-3,4-dihydro-2H-benzo[e][1,2]oxaborinine-8-carboxylic acid], for which the Ki on NDM-1 [1] and on NDM-1 [2] (setting [8]) was 10 to 100 nM throughout. The compound further displayed an IC50 against VIM-1 of less than 1000 nM.

Take `CO[C@H]1Cc2cccc(C(=O)O)c2OB1O` [Compound 17, (R)-2-hydroxy-3-methoxy-3,4-dihydro-2H-benzo[e][1,2]oxaborinine-8-carboxylic acid]: the Ki on NDM-1 [1] was 10 to 100 nM; in assay [4], less than 100 nM; in assay [3], less than 100 nM; in assay [5] it was less than 100 nM; at NDM-1 [2] (cleavage of biapenem (100 uM) by NDM-1, read-out: Ki, Biapenem) it was 10 to 100 nM; at NDM-1 [2] (setting [8]), 10 to 100 nM. In addition, on NDM-1 [2] (cleavage of meropenem (100 uM) by NDM-1, read-out: Ki, Meropenem), the Ki is 10 to 100 nM. This compound returned an IC50 at VIM-1 of less than 1000 nM.

Turning to `CO[C@H]1Cc2ccc(F)c(C(=O)O)c2OB1O` [Compound 19, (R)-7-fluoro-2-hydroxy-3-methoxy-3,4-dihydro-2H-benzo[e][1,2]oxaborinine-8-carboxylic acid], the IC50 at VIM-1 was less than 1000 nM. Besides, the Ki in assay [4] is less than 100 nM; in assay [3], less than 100 nM; in assay [5] it was less than 100 nM; on NDM-1 [2] (setting [8]), less than 10 nM.

With `Nn1cnnc1S[C@H]1Cc2ccc(F)c(C(=O)O)c2OB1O` [Compound 20, (R)-3-(4-amino-4H-1,2,4-triazol-3-ylthio)-7-fluoro-2-hydroxy-3,4-dihydro-2H-benzo[e][1,2]oxaborinine-8-carboxylic acid], the Ki was less than 10 nM on NDM-1 [1]; less than 100 nM in assay [4]; 100 to 1000 nM in assay [3]; 100 to 1000 nM in assay [5]; less than 10 nM at NDM-1 [2] (setting [8]). The same compound had an IC50 on VIM-1 of no less than 1000 nM.

Consider `Cn1cnnc1S[C@H]1Cc2ccc(F)c(C(=O)O)c2OB1O` [Compound 24, (R)-7-fluoro-2-hydroxy-3-(4-methyl-4H-1,2,4-triazol-3-ylthio)-3,4-dihydro-2H-benzo[e][1,2]oxaborinine-8-carboxylic acid], for which the Ki on NDM-1 [1] was 10 to 100 nM; in assay [4], less than 100 nM; in assay [3] it was 100 to 1000 nM; in assay [5] it was less than 100 nM; on NDM-1 [2] (setting [8]), 10 to 100 nM. In addition, the IC50 against VIM-1 was no less than 1000 nM.

In the case of `CSc1ccc2c(c1C(=O)O)OB(O)[C@@H](Sc1nncn1N)C2` [Compound 25, (R)-3-(4-amino-4H-1,2,4-triazol-3-ylthio)-2-hydroxy-7-(methylthio)-3,4-dihydro-2H-benzo[e][1,2]oxaborinine-8-carboxylic acid], the Ki at NDM-1 [1] is less than 10 nM; in assay [4] it was less than 100 nM; in assay [3], 100 to 1000 nM; in assay [5], less than 100 nM; on NDM-1 [2] (setting [8]), less than 10 nM. The IC50 on VIM-1 is less than 1000 nM.

For `COc1ccc2c(c1C(=O)O)OB(O)[C@@H](SC1CN(S(N)(=O)=O)C1)C2` [Compound 76, (3R)-2-hydroxy-7-methoxy-3-(1-sulfamoylazetidin-3-yl)sulfanyl-3,4-dihydro-1,2-benzoxaborinine-8-carboxylic acid], the Ki on NDM-1 [1] is greater than 100 nM; in assay [3], 100 to 1000 nM; in assay [5], less than 100 nM; on NDM-1 [2] (setting [8]), greater than 100 nM. The compound also yielded an IC50 against VIM-1 of no less than 1000 nM. The “Ki (CTX-M-14, NCF)” value in assay [6] was “X (Less than 0.1 μM)”. The “Ki (P99/AmpC of ECL, NCF)” value in assay [7] is recorded as “Y (0.1 μM to 1 μM)”.

`O=C(O)c1c(OCC2CC2)ccc2c1OB(O)[C@@H](Sc1nncs1)C2` [Compound 92, (3R)-7-(cyclopropylmethoxy)-2-hydroxy-3-(1,3,4-thiadiazol-2-ylsulfanyl)-3,4-dihydro-1,2-benzoxaborinine-8-carboxylic acid]: the Ki is 10 to 100 nM at NDM-1 [1], 100 to 1000 nM in assay [3], less than 100 nM in assay [5] and 10 to 100 nM at NDM-1 [2] (setting [8]). This compound also registered an IC50 against VIM-1 of less than 1000 nM. In addition, in assay [6], the “Ki (CTX-M-14, NCF)” value is reported as “X (Less than 0.1 μM)”. The “Ki (P99/AmpC of ECL, NCF)” value in assay [7] is recorded as “Y (0.1 μM to 1 μM)”.

In the case of `O=C(O)c1c(OCc2nncs2)ccc2c1OB(O)[C@@H](Sc1nncs1)C2` [Compound 93], the Ki on NDM-1 [1] is greater than 100 nM; in assay [3], 100 to 1000 nM; in assay [5] it was less than 100 nM; on NDM-1 [2] (setting [8]) it was greater than 100 nM. The compound also returned a 50% inhibitory concentration (IC50) against VIM-1 of less than 1000 nM. Moreover, in assay [6], the “Ki (CTX-M-14, NCF)” value is “X (Less than 0.1 μM)”. The “Ki (P99/AmpC of ECL, NCF)” value in assay [7] is given as “Y (0.1 μM to 1 μM)”.

In the case of `O=C(O)c1c(OC(F)F)ccc2c1OB(O)[C@@H](Sc1nncs1)C2` [Compound 94, (3R)-7-(difluoromethoxy)-2-hydroxy-3-(1,3,4-thiadiazol-2-ylsulfanyl)-3,4-dihydro-1,2-benzoxaborinine-8-carboxylic acid], the Ki on NDM-1 [1] was greater than 100 nM; in assay [3] it was 100 to 1000 nM; in assay [5] it was less than 100 nM; at NDM-1 [2] (setting [8]), greater than 100 nM. Moreover, on VIM-1, the IC50 was less than 1000 nM. In assay [6], the “Ki (CTX-M-14, NCF)” value is reported as “X (Less than 0.1 μM)”. Also, the “Ki (P99/AmpC of ECL, NCF)” value in assay [7] is listed as “Z (Greater than 1 μM)”.

Take `CSCCOc1ccc2c(c1C(=O)O)OB(O)[C@@H](Sc1nncs1)C2` [Compound 95, (3R)-2-hydroxy-7-(2-methylsulfanylethoxy)-3-(1,3,4-thiadiazol-2-ylsulfanyl)-3,4-dihydro-1,2-benzoxaborinine-8-carboxylic acid]: the Ki on NDM-1 [1] was 10 to 100 nM; in assay [3] it was 100 to 1000 nM; in assay [5], less than 100 nM; at NDM-1 [2] (setting [8]), 10 to 100 nM. The IC50 at VIM-1 was less than 1000 nM. For the same compound, the “Ki (CTX-M-14, NCF)” value in assay [6] is “X (Less than 0.1 μM)”. Moreover, the “Ki (P99/AmpC of ECL, NCF)” value in assay [7] is reported as “Y (0.1 μM to 1 μM)”.

Consider `COc1ccc2c(c1C(=O)O)OB(O)[C@@H](Sc1nnc(NC(=N)N)s1)C2` [Compound 106, (3R)-3-[(5-guanidino-1,3,4-thiadiazol-2-yl)sulfanyl]-2-hydroxy-7-methoxy-3,4-dihydro-1,2-benzoxaborinine-8-carboxylic acid], for which the Ki at NDM-1 [1] was greater than 100 nM; in assay [3] it was 100 to 1000 nM; in assay [5], less than 100 nM; on NDM-1 [2] (setting [8]), greater than 100 nM. Besides, on VIM-1, the IC50 was less than 1000 nM. In addition, the “Ki (CTX-M-14, NCF)” value in assay [6] is on record as “X (Less than 0.1 μM)”. Besides, the “Ki (P99/AmpC of ECL, NCF)” value in assay [7] was “X (Less than 0.1 μM)”.

`CS(=O)(=O)Nc1ccc2c(c1C(=O)O)OB(O)[C@@H](Sc1nnc(N)s1)C2` [Compound 120, (3R)-3-[(5-amino-1,3,4-thiadiazol-2-yl)sulfanyl]-2-hydroxy-7-(methanesulfonamido)-3,4-dihydro-1,2-benzoxaborinine-8-carboxylic acid]: the Ki is less than 10 nM on NDM-1 [1], 100 to 1000 nM in assay [3], less than 100 nM in assay [5] and less than 10 nM on NDM-1 [2] (setting [8]). The compound also came in with an IC50 against VIM-1 of less than 1000 nM. For the same compound, the “Ki (CTX-M-14, NCF)” value in assay [6] is listed as “X (Less than 0.1 μM)”. The “Ki (P99/AmpC of ECL, NCF)” value in assay [7] was “X (Less than 0.1 μM)”.
